Experimental data from ChEMBL document CHEMBL1671799, “Modelling topoisomerase I inhibition by minor groove binders” (Bioorg Med Chem, 2011).
Active and inactive are the calls of the source. The rule behind the calls is not given here.

Organism: Bos taurus
Assay: Inhibition of calf thymus topoisomerase 1 relative to Hoechst 33342

Row | Compound | Ratio | inhibition
1 | CN1CCN(c2ccc3[nH]c(-c4ccc5[nH]c(-c6cccc7ccccc67)nc5c4)nc3c2)CC1 | 20 | –
2 | Cc1ccc(-c2nc3cc(-c4nc5cc(N6CCN(C)CC6)ccc5[nH]4)ccc3[nH]2)cc1 | 1 | –
3 | COc1ccc(-c2nc3ccc(-c4nc5cc(-c6ccccc6)ccc5[nH]4)cc3[nH]2)cc1 | 40 | –
4 | Cc1nc2ccc(-c3nc4cc(-c5ccccc5)ccc4[nH]3)cc2[nH]1 | 4 | –
5 | Clc1nc2ccc(-c3nc4ccc(-c5nc6cc(Br)c(Br)cc6[nH]5)cc4[nH]3)cc2[nH]1 | 1 | –
6 | CCc1nc2ccc(-c3nc4cc(-c5ccccc5)ccc4[nH]3)cc2[nH]1 | 2 | –
7 | COc1ccc(-c2nc3cc([N+](=O)[O-])ccc3s2)cc1 | – | inactive
8 | N#Cc1ccc2[nH]c(-c3ccc4[nH]c(-c5cccc6ccccc56)nc4c3)nc2c1 | 10 | –
9 | COc1ccc2[nH]c(-c3ccc4nc(-c5ccc6nc[nH]c6c5)[nH]c4c3)nc2c1 | 0.05 | –
10 | COc1ccc(-c2nc3cc(-c4nc5cc(N)ccc5[nH]4)ccc3[nH]2)cc1 | 100 | –
11 | Cc1ccccc1-c1nc2cc(-c3nc4cc(N5CCN(C)CC5)ccc4[nH]3)ccc2[nH]1 | 10 | –
12 | c1cncc(-c2ccc3[nH]c(-c4ccc5[nH]c(-c6ccc7[nH]cnc7c6)nc5c4)nc3c2)c1 | 2 | –
13 | COc1ccc(-c2nc3cc(-c4nc5cc(CCCN(C)C)ccc5[nH]4)ccc3[nH]2)cc1 | 2 | –
14 | c1nc2ccc(-c3nc4ccc(-c5nc6cc(N7CCCCC7)ccc6[nH]5)cc4[nH]3)cc2[nH]1 | 0.5 | –
15 | FC(F)(F)c1nc2ccc(-c3nc4ccc(-c5nc6cc(Br)c(Br)cc6[nH]5)cc4[nH]3)cc2[nH]1 | 1 | –
16 | COc1ccc(-c2nc3cc(-c4nc5cc(N6CCN(C)CC6)ccc5[nH]4)ccc3[nH]2)cc1 | 1 | –
17 | FC(F)(F)c1nc2ccc(-c3nc4ccc(-c5nc6ccc(-c7ccc(Cl)cc7)cc6[nH]5)cc4[nH]3)cc2[nH]1 | 1 | –
18 | c1ccc(-c2ccc3[nH]c(-c4ccc5[nH]c(-c6ccc7[nH]cnc7c6)nc5c4)nc3c2)nc1 | 3.3 | –
19 | COc1ccc(-c2nc3cc(-c4nc5cc(N(C)C)ccc5[nH]4)ccc3[nH]2)cc1 | 1000 | –
20 | COc1ccc(-c2nc3cc([N+](=O)[O-])ccc3o2)cc1 | – | inactive
21 | Cc1cccc(-c2nc3cc(-c4nc5cc(C(N)=O)ccc5[nH]4)ccc3[nH]2)c1 | 100 | –
22 | COc1ccc(-c2nc3cc(-c4nc5cc(-c6nc7cc(C#N)ccc7[nH]6)ccc5[nH]4)ccc3[nH]2)cc1 | 1000 | –
23 | COc1ccc(-c2nc3cc(CN)ccc3[nH]2)cc1 | > 300000 | –

Row | Compound | Ratio | inhibition
24 | c1ccc2cc(-c3ccc4[nH]c(-c5ccc6[nH]c(-c7ccc8[nH]cnc8c7)nc6c5)nc4c3)ccc2c1 | 10 | –
25 | COc1ccc(-c2nc3ccccc3[nH]2)cc1 | > 300000 | –
26 | Oc1nc2ccc(-c3nc4ccc(-c5nc6ccc(Br)cc6[nH]5)cc4[nH]3)cc2[nH]1 | 1 | –
27 | c1ccc(-c2ccc3[nH]c(-c4ccc5[nH]c(-c6ccc7nccnc7c6)nc5c4)nc3c2)cc1 | > 100 | –
28 | c1ccc2[nH]c(-c3ccc4[nH]c(-c5ccc6[nH]cnc6c5)nc4c3)nc2c1 | 1.1 | –
29 | c1ccc(-c2ccc3[nH]c(-c4ccc5[nH]c(-c6ccc7[nH]nnc7c6)nc5c4)nc3c2)cc1 | 1 | –
30 | COc1ccc(-c2nc3cc(C#N)ccc3[nH]2)cc1 | > 300000 | –
31 | NC(=O)c1ccc2[nH]c(-c3ccc4[nH]c(-c5ccccc5)nc4c3)nc2c1 | 10 | –
32 | COc1ccc(-c2nc3cc(C(N)=O)ccc3[nH]2)cc1 | 3000 | –
33 | NC(=O)c1ccc2[nH]c(-c3ccc4[nH]c(-c5cccc6ccccc56)nc4c3)nc2c1 | 20 | –
34 | Brc1ccc2[nH]c(-c3ccc4nc(-c5ccc6nc[nH]c6c5)[nH]c4c3)nc2c1 | 1 | –
35 | N#Cc1ccc2[nH]c(-c3ccc4[nH]c(-c5ccc6[nH]cnc6c5)nc4c3)nc2c1 | 0.1 | –
36 | COc1ccc(-c2nc3cc(-c4nc5cc(C#N)ccc5[nH]4)ccc3[nH]2)cc1 | 3.3 | –
37 | c1ccc2cc(-c3ccc4[nH]c(-c5ccc6nc[nH]c6c5)nc4c3)ccc2c1 | 2 | –
38 | COc1ccc(-c2nc3cc(-c4nc5cc(OC6CCN(C)CC6)ccc5[nH]4)ccc3[nH]2)cc1 | 2 | –
39 | Cc1ccccc1-c1nc2cc(-c3nc4cc(C(N)=O)ccc4[nH]3)ccc2[nH]1 | 100 | –
40 | COc1ccc(-c2nc3c([N+](=O)[O-])cccc3[nH]2)cc1 | > 300000 | –
41 | Nc1ccc2[nH]c(-c3ccc4nc(-c5ccc6nc[nH]c6c5)[nH]c4c3)nc2c1 | 1 | –
42 | Oc1nc2ccc(-c3nc4cc(-c5nc6cc(-c7ccccc7)ccc6[nH]5)ccc4[nH]3)cc2nc1O | 1 | –
43 | CN1CCN(c2ccc3[nH]c(-c4ccc5[nH]c(-c6ccccc6)nc5c4)nc3c2)CC1 | 1 | –
44 | c1ccc(-c2ccc3[nH]c(-c4ccc5nc(-c6ccccc6)[nH]c5c4)nc3c2)cc1 | 40 | –
45 | CCCc1ccc2[nH]c(-c3ccc4[nH]c(-c5ccc6[nH]cnc6c5)nc4c3)nc2c1 | 0.5 | –
46 | Cc1ccc(-c2nc3cc(-c4nc5cc(C(N)=O)ccc5[nH]4)ccc3[nH]2)cc1 | 10 | –

Row | Compound | Ratio | inhibition
47 | CN1CCN(c2ccc3[nH]c(-c4ccc5[nH]c(-c6ccc7ccccc7c6)nc5c4)nc3c2)CC1 | 10 | –
48 | COc1ccc(-c2nc3cc(C(=O)O)ccc3[nH]2)cc1 | > 300000 | –
49 | Clc1ccc(-c2ccc3[nH]c(-c4ccc5nc[nH]c5c4)nc3c2)cc1 | 4 | –
50 | COc1ccc(-c2cc3cc([N+](=O)[O-])ccc3[nH]2)cc1 | – | inactive
51 | COc1ccc(-c2nc3ccc([N+](=O)[O-])cc3o2)cc1 | – | inactive
52 | Cc1cccc(-c2nc3cc(-c4nc5cc(C#N)ccc5[nH]4)ccc3[nH]2)c1 | 100 | –
53 | c1ccc(-c2cc3nc(-c4ccc5nc(-c6ccc7nc[nH]c7c6)[nH]c5c4)[nH]c3cc2-c2ccccc2)cc1 | 1 | –
54 | COc1ccc(-c2nc3cc(-c4nc5cc(CCN(C)C)ccc5[nH]4)ccc3[nH]2)cc1 | 5 | –
55 | COc1ccc(-c2nc3cc(Br)ccc3[nH]2)cc1 | > 300000 | –
56 | c1ccc(-c2ccc3[nH]c(-c4ccc5nc[nH]c5c4)nc3c2)cc1 | 2 | –
57 | COc1ccc(-c2nc3cc(CO)ccc3[nH]2)cc1 | 30000 | –
58 | COc1ccc(-c2nc3ccc([N+](=O)[O-])cc3s2)cc1 | – | inactive
59 | COc1ccc(-c2ccc3[nH]c(-c4ccc5nc[nH]c5c4)nc3c2)cc1 | 1 | –
60 | N#Cc1ccc2[nH]c(-c3ccc4[nH]c(-c5ccccc5)nc4c3)nc2c1 | > 100 | –
61 | Fc1ccc2[nH]c(-c3ccc4nc(-c5ccc6nc[nH]c6c5)[nH]c4c3)nc2c1 | 0.05 | –
62 | Cc1cccc(-c2nc3cc(-c4nc5cc(N6CCN(C)CC6)ccc5[nH]4)ccc3[nH]2)c1 | 1 | –
63 | CC(C)c1nc2ccc(-c3nc4cc(-c5ccccc5)ccc4[nH]3)cc2[nH]1 | 1 | –
64 | NC(=O)c1ccc2[nH]c(-c3ccc4[nH]c(-c5ccc6ccccc6c5)nc4c3)nc2c1 | 100 | –
65 | c1ccc(-c2cccc3[nH]c(-c4ccc5nc[nH]c5c4)nc23)cc1 | 10 | –
66 | Brc1cc2nc(-c3ccc4nc(-c5ccc6nc[nH]c6c5)[nH]c4c3)[nH]c2cc1Br | 1 | –
67 | COc1ccc(-c2cc3ccc([N+](=O)[O-])cc3[nH]2)cc1 | – | inactive
68 | N#Cc1ccc2[nH]c(-c3ccc4[nH]cnc4c3)nc2c1 | 1000 | –
69 | COc1cc2nc(-c3ccc4nc(-c5ccc6nc[nH]c6c5)[nH]c4c3)[nH]c2cc1-c1ccccc1 | 0.5 | –

Row | Compound | Ratio | inhibition
70 | c1ccc2c(-c3ccc4[nH]c(-c5ccc6nc[nH]c6c5)nc4c3)cccc2c1 | 4 | –
71 | c1cc(-c2ccc3[nH]c(-c4ccc5[nH]c(-c6ccc7[nH]cnc7c6)nc5c4)nc3c2)ccn1 | 2 | –
72 | CCCc1nc2ccc(-c3nc4ccc(-c5nc6ccc(Br)cc6[nH]5)cc4[nH]3)cc2[nH]1 | 1 | –
73 | COc1ccc(-c2nc3cc(C=O)ccc3[nH]2)cc1 | 300 | –
74 | COc1ccc(-c2nc3cc(-c4nc5cc([N+](=O)[O-])ccc5[nH]4)ccc3[nH]2)cc1 | 1000 | –
75 | c1ccc(-c2ccc3[nH]c(-c4ccc5[nH]c(-c6ccc7[nH]ccc7c6)nc5c4)nc3c2)cc1 | 50 | –
76 | COc1ccc(-c2nc3cc([N+](=O)[O-])ccc3[nH]2)cc1 | 300 | –
77 | c1ccc(-c2ccc3[nH]c(-c4ccc5[nH]c(-c6ccc7[nH]cnc7c6)nc5c4)nc3c2)cc1 | 1 | –
78 | Oc1ccc2[nH]c(-c3ccc4nc(-c5ccc6nc[nH]c6c5)[nH]c4c3)nc2c1 | 0.5 | –
79 | N#Cc1ccc2[nH]c(-c3ccc4[nH]c(-c5ccc6ccccc6c5)nc4c3)nc2c1 | 10 | –
80 | Cc1ccc(-c2nc3cc(-c4nc5cc(C#N)ccc5[nH]4)ccc3[nH]2)cc1 | 1 | –
81 | Clc1ccc2[nH]c(-c3ccc4nc(-c5ccc6nc[nH]c6c5)[nH]c4c3)nc2c1 | 1 | –
82 | c1ccc2c(c1)ccc1[nH]c(-c3ccc4nc[nH]c4c3)nc12 | 2 | –
83 | Cc1ccccc1-c1nc2cc(-c3nc4cc(C#N)ccc4[nH]3)ccc2[nH]1 | > 500 | –
84 | c1ccc2c(-c3ccc4[nH]c(-c5ccc6[nH]c(-c7ccc8[nH]cnc8c7)nc6c5)nc4c3)cccc2c1 | 10 | –
85 | c1ccc2cc3[nH]c(-c4ccc5nc[nH]c5c4)nc3cc2c1 | 2000 | –
86 | O=[N+]([O-])c1ccc2[nH]c(-c3ccc4nc(-c5ccc6nc[nH]c6c5)[nH]c4c3)nc2c1 | 0.5 | –
87 | COc1cc2nc(-c3ccc4nc(-c5ccc6nc[nH]c6c5)[nH]c4c3)[nH]c2cc1Br | 2 | –
88 | c1ccc(-c2ccc3[nH]c(-c4ccc5[nH]c(-c6ccc7cc[nH]c7c6)nc5c4)nc3c2)cc1 | 5 | –
89 | COc1ccc(-c2nc3cc(-c4nc5cc(CN(C)C)ccc5[nH]4)ccc3[nH]2)cc1 | 2.5 | –
90 | CCCc1nc2ccc(-c3nc4cc(-c5ccccc5)ccc4[nH]3)cc2[nH]1 | 1 | –
